Reference: patent US20200140489A1 (priority 2013, published 2020)
Read-outs that look alike come from different tables or passages of the source. Positions of bridges follow the written chain, without caps; N, C: chain ends. Non-standard residues stand in square brackets, D forms with d. Residues, ends and D or L forms follow the SMILES beside them. NMeI = CC[C@H](C)[C@H](NC)C(=O)O; NMeD = CN[C@@H](CC(=O)O)C(=O)O; NMeL = CN[C@@H](CC(C)C)C(=O)O

Columns and labels:
[1] = biological target: T1, AgrC-IV (Staphylococcus aureus, UniProt Q309Z2); type: cell-based, S. aureus; settings: for AgrC-IV activity: gfp/fluorescence assay; for IC50: read-out: AgrC-IV IC50, fluorescence reporter strain
T1 sequence (Q309Z2 1-430): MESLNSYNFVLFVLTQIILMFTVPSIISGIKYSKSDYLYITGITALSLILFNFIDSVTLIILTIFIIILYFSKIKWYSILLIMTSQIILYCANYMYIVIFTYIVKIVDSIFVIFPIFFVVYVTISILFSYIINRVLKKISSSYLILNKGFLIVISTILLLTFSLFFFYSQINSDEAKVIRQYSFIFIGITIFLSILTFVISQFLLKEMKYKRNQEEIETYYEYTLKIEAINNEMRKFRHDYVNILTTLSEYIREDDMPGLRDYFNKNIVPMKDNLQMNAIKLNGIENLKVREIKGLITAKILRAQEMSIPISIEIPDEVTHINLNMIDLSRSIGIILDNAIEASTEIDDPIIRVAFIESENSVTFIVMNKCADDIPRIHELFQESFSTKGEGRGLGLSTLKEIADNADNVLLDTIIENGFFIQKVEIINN

[2] = biological target: AgrC-III (Staphylococcus aureus, UniProt O33590); type: cell-based, S. aureus; settings: for AgrC-III activity: gfp/fluorescence assay; for IC50: read-out: AgrC-III IC50, fluorescence reporter strain
Sequence of AgrC-III (O33590 1-425): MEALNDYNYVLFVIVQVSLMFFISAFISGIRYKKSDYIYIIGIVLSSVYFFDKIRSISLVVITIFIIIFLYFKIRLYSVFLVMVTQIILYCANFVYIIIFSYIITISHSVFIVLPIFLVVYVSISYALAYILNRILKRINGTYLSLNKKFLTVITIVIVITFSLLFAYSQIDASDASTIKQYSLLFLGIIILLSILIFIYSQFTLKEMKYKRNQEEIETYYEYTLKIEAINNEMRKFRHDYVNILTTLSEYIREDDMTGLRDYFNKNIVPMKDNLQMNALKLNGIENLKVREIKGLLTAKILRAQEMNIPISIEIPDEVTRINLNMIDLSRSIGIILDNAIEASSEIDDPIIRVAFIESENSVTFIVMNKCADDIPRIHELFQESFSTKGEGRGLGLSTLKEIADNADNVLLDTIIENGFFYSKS

[3] = biological target: T2, AgrC-I (Staphylococcus aureus, UniProt O07911); type: cell-based, S. aureus; settings: read-out: AgrC-I IC50, fluorescence reporter strain
T2 sequence (O07911 1-430): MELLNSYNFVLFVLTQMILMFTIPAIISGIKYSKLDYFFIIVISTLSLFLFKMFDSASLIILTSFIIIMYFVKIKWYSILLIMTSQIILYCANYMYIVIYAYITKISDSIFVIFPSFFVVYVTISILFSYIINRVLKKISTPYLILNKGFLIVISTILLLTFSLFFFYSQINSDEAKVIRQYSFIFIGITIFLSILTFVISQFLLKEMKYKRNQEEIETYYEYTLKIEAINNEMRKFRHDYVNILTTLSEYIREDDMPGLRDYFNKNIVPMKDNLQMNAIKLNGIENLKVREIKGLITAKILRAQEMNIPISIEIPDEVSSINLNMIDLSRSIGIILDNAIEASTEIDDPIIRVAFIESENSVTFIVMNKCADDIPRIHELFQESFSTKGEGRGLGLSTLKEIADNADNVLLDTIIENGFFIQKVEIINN

[4] = biological target: T3, AgrC-II (Staphylococcus aureus, UniProt O33587); type: cell-based, S. aureus; settings: read-out: AgrC-II IC50, fluorescence reporter strain
T3 sequence (O33587 1-437): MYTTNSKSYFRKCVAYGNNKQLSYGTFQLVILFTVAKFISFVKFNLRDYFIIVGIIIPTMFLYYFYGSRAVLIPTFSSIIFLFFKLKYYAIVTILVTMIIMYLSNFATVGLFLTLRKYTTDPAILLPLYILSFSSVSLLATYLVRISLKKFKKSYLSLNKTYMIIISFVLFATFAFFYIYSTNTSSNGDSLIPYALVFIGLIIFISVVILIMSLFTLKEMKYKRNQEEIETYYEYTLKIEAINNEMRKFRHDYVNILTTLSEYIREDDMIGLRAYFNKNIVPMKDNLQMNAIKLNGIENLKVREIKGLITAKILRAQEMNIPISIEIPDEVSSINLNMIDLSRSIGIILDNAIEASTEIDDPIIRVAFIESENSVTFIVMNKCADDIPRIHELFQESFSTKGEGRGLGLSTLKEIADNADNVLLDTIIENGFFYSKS

[5] = biological target: T3, AgrC-II; experiment: Hemolysis assay, wild-type group-II strain RN6923, rabbit red blood cells; settings: read-out: AgrC-II IC50; hemolysis assay; 200 fM − 10 μM
[6] = biological target: T2, AgrC-I; experiment: Hemolysis assay, wild-type group-I strain RN6390B, rabbit red blood cells; settings: read-out: AgrC-I IC50; hemolysis assay; 200 fM − 10 μM
[7] = biological target: T1, AgrC-IV; experiment: Hemolysis assay, wild-type group-IV strain RN4850, rabbit red blood cells; settings: read-out: AgrC-IV IC50; hemolysis assay; 200 fM − 10 μM
[8] = second-generation analogues, 200 fM − 10 μM
[9] = AIPs tested over 200 fM − 10 μM or (b1) 2.5 pM − 10 μM, triplicate

For `CC[C@H](C)[C@H](NC(=O)[C@H](C)N)C(=O)N[C@@H](CC(N)=O)C(=O)N[C@H]1CSC(=O)[C@H](CC(C)C)NC(=O)[C@H](CC(C)C)NC(=O)[C@H](Cc2ccccc2)NC(=O)[C@H](CC(=O)O)NC1=O` [A-AIP-III, A-I-N-(C-D-F-L-L)] (H-AINCDFLL; thioester 4-C), the “AgrC-IV activity” value [1] was “partial agonism”, the IC50 [1, 8] was 0.0285 µM and the “AgrC-III activity” value [2] was “partial agonist”. The IC50 [2, 8] was 0.0275 µM, the IC50 [3, 8] was 0.0261 µM and the IC50 [4, 8] was 0.0064 µM.

In the case of `CC[C@H](C)[C@H](N)C(=O)N[C@@H](CC(N)=O)C(=O)N[C@H]1CSC(=O)[C@H](CC(C)C)NC(=O)[C@H](CC(C)C)NC(=O)[C@H](C)NC(=O)[C@H](CC(=O)O)NC1=O` [AIP-III F5A, I-N-(C-D-A-L-L)] (H-INCDALL; thioester 3-C), the IC50 [1, 9] is reported as 0.118 µM, the IC50 [2, 9] is reported as > 0.2 µM and the IC50 [3, 9] is reported as > 0.2 µM. The IC50 [4, 9] was > 0.2 µM and the IC50 [5] was 0.0447 µM.

With `CC(C)C[C@@H]1NC(=O)[C@H](Cc2ccccc2)NC(=O)[C@H](CC(=O)O)NC(=O)[C@@H](NC(=O)[C@H](CC(N)=O)NC(=O)[C@H](C)N)CSC(=O)[C@H](CC(C)C)NC1=O` [AIP-III I1A, A-N-(C-D-F-L-L)] (H-ANCDFLL; thioester 3-C) the IC50 [6] was 0.00461 µM, the IC50 [1, 9] was 0.00785 µM and the IC50 [7] was 0.0125 µM. The IC50 [2, 9] was 0.194 µM, the IC50 [3, 9] was 0.0179 µM and the IC50 [4, 9] was 0.00426 µM. The IC50 [5] was 0.00129 µM.

`CC(C)C[C@@H]1NC(=O)[C@H](Cc2ccccc2)NC(=O)[C@H](CC(=O)O)NC(=O)[C@@H](NC(=O)[C@H](C)NC(=O)[C@H](C)N)CSC(=O)[C@H](CC(C)C)NC1=O` [AIP-III I1A/N2A, A-A-(C-D-F-L-L)] (H-AACDFLL; thioester 3-C) gave an IC50 [1, 8] of 0.00541 µM, an IC50 [2, 8] of 0.0026 µM and an IC50 [3, 8] of 0.0074 µM. For the same molecule, the IC50 [4, 8] was 0.00438 µM.

For `CC[C@H](C)[C@H](N)C(=O)N[C@@H](CC(N)=O)C(=O)N[C@H]1CSC(=O)[C@H](CC(C)C)NC(=O)[C@H](C)NC(=O)[C@H](Cc2ccccc2)NC(=O)[C@H](CC(=O)O)NC1=O` [AIP-III L6A, I-N-(C-D-F-A-L)] (H-INCDFAL; thioester 3-C), the IC50 [1, 9] was > 0.2 µM, the IC50 [2, 9] was > 0.2 µM and the IC50 [3, 9] was > 0.2 µM. The IC50 [4, 9] was > 0.2 µM.

With `CC[C@H](C)[C@H](N)C(=O)N[C@@H](CC(N)=O)C(=O)N[C@H]1CSC(=O)[C@H](C)NC(=O)[C@H](CC(C)C)NC(=O)[C@H](Cc2ccccc2)NC(=O)[C@H](CC(=O)O)NC1=O` [AIP-III L7A, I-N-(C-D-F-L-A)] (H-INCDFLA; thioester 3-C) the IC50 [1, 9] was > 0.2 µM, the “AgrC-III activity” value [2] was “largely inactive” and the IC50 [2, 9] was > 0.2 µM. The IC50 [3, 9] was > 0.2 µM and the IC50 [4, 9] was > 0.2 µM.

For `CC[C@H](C)[C@H](N)C(=O)N[C@@H](C)C(=O)N[C@H]1CSC(=O)[C@H](CC(C)C)NC(=O)[C@H](CC(C)C)NC(=O)[C@H](Cc2ccccc2)NC(=O)[C@H](CC(=O)O)NC1=O` [AIP-III N2A, I-A-(C-D-F-L-L)] (H-IACDFLL; thioester 3-C), the IC50 [6] was 0.00102 µM, the IC50 [1, 9] was 0.00353 µM and the IC50 [7] was 0.00264 µM. The “AgrC-III activity” value [2] was “weak agonist”, the IC50 [3, 9] was 0.0036 µM and the IC50 [4, 9] was 0.000732 µM. For the same molecule, the IC50 [5] was 0.000137 µM.

For `CC[C@H](C)[C@H](N)C(=O)N[C@@H](CC(N)=O)C(=O)N[C@H]1CSC(=O)[C@H](CC(C)C)NC(=O)[C@H](CC(C)C)NC(=O)[C@H](Cc2ccccc2)NC(=O)[C@H](CC(=O)O)N(C)C1=O` [AIP-III N-Me-D4, I-N-(C-NMeD-F-L-L)] (H-INC[NMeD]FLL; thioester 3-C), the IC50 [1, 9] was 0.0369 µM, the IC50 [2, 9] was 0.0902 µM and the IC50 [3, 9] was 0.172 µM. For the same molecule, the IC50 [4, 9] was 0.00798 µM.

With `CC[C@H](C)[C@H](NC)C(=O)N[C@@H](CC(N)=O)C(=O)N[C@H]1CSC(=O)[C@H](CC(C)C)NC(=O)[C@H](CC(C)C)NC(=O)[C@H](Cc2ccccc2)NC(=O)[C@H](CC(=O)O)NC1=O` [AIP-III N-Me-I1, NMeI-N-(C-D-F-L-L)] (H-[NMeI]NCDFLL; thioester 3-C) the IC50 [1, 9] was 0.0492 µM, the IC50 [2, 9] was > 1 µM and the IC50 [3, 9] was 0.0608 µM. It also gave an IC50 [4, 9] of 0.0128 µM.

In the case of `CC[C@H](C)[C@H](N)C(=O)N[C@@H](CC(N)=O)C(=O)N[C@H]1CSC(=O)[C@H](CC(C)C)NC(=O)[C@H](CC(C)C)N(C)C(=O)[C@H](Cc2ccccc2)NC(=O)[C@H](CC(=O)O)NC1=O` [AIP-III N-Me-L6, I-N-(C-D-F-NMeL-L)] (H-INCDF[NMeL]L; thioester 3-C), the “AgrC-IV activity” value [1] is reported as “AgrC-IV selective inhibitor”, the IC50 [1, 9] is reported as 0.0816 µM and the IC50 [2, 9] is reported as 0.162 µM. For the same molecule, the IC50 [3, 9] was > 1 µM.
